Source: patent publication US9420770B2, “Methods of modulating thrombocytopenia and modified transgenic pigs” (Indiana University Research and Technology Corporation, priority 2009, dated 2016)

Key:
Type in all cases: cell-based, pig
[1] = system: porcine primary LSECs; assay: Platelet phagocytosis assay with siRNA treated LSECs; details: 48 hours after siRNA treatment, n=3
Experimental: Primary LSECs were cultured in black walled-clear bottomed, cell culture treated 96-well plates (approximately 100,000 cells/well). The plated cells were incubated at 37° C. and 5% CO2 for four, five or six days as indicated. Four million CFSE-labeled platelets were added to wells in 96 well plates containing primary LSEC and media. Plates were centrifuged at 2000×g to synchronize the wells. At predetermined time points, the incubations were stopped. Duplicate wells for each time point were washed with PBS three times. After washing, the cells were incubated with 4% paraformaldehyde-PBS solution for 20 minutes to fix the cells. The wells were washed with PBS. 50 μl PBS was placed in each well. After obtaining the timepoints, the plates were read for fluorescence using a Spectra Max M2e plate reader (Molecular Devices Co.) set to read 9 different points within each well. Wells with LSECs and without CFSE-labeled platelets were used to determine the auto-fluorescence of LSECs. Data points from at least three separate porcine LSEC experiments were averaged and the standard deviation was obtained.
siRNA sense and antisense oligos were designed to the mRNA sequence of ASGR1 (FIG. 17C). […] ASGR1 transcript levels were determined by quantitative PCR. ASGR1 protein levels were analyzed. […]

[2] = system: ASGR1 protein; assay: siRNA reduction of ASGR1: protein levels by immunoblotting; details: 48 hours after siRNA treatment
Experimental: LSECs were resuspended in Laemmli sample buffer with protease arrest (G-bioscience™, Maryland Heights Mo.). Samples were electrophoresed on SDS-polyacrylamide gels (SDS-PAGE). Polypeptides were transferred to membranes for immunoblot or lectin blot analysis. Membranes were blocked by incubation with 50% Odyssey blocking buffer (LI-COR Biosciences™, Lincoln Nebr.) in phosphate buffered saline (PBS) for approximately one hour. Membranes were incubated with anti-ASGR1 (Santa Cruz Biotechnologies™, Santa Cruz Calif.), anti-GAPDH (Millipore™, Billerica Mass., MAB374), anti-β-actin (Rockland Immunochemicals for Research, Gilbertsville Pa.), or anti-CD42b (Santa Cruz Biotechnologies™, SC-13467) according to the manufacturer's recommended protocol. Membranes were also incubated with ECA-biotin (EY Laboratories San Mateo Calif.) in a calcium containing buffer. Following primary antibody or lectin binding, membranes were washed. Membranes were incubated with the appropriate secondary antibody or streptavidin conjugated to either IRDye 800CW or IRDye680CW (LI-Cor Biosciences™). […] Protein bands were quantified by intensity using the LI-COR software.
(§1) siRNA sense and antisense oligos were designed to the mRNA sequence of ASGR1 (FIG. 17C). […] ASGR1 transcript levels were determined by quantitative PCR. ASGR1 protein levels were analyzed.

[3] = system: ASGR1 mRNA; assay: siRNA reduction of ASGR1: transcript levels by quantitative PCR; details: 48 hours after siRNA treatment
Experimental: RNA extraction was performed on cultured LSEC and tissues harvested from domestic and GTKO/hDAF pigs. Total RNA was extracted from LSEC and low-fiber tissues using the RNeasy Minikit (Qiagen, Valencia Calif.). RNA from fiber-rich tissue was isolated using the RNeasy fibrous tissue kit (Qiagen, Valencia Calif.). RNA quality was assessed using an Agilent 2100 Bioanalyzer (Biotechnology Research and Training Center IUPUI). Reverse transcription was performed using Quantitect Reverse Transcription kit (Qiagen, Valencia Calif.). Presence/absence experiments of endogenous mRNA were performed on a 9700 Applied Biosystems™ cycler. Products were run using Quantitect Sybr Green (Qiagen, Valencia Calif.). Endogenous mRNA levels were measured by real-time quantitative PCR analysis on a STEP-ONE PLUS (Applied Biosystems™, Carlsbad Calif.) real time PCR system and comparative CT analysis was performed. Gene expression assays for porcine ASGR1 and β-actin AI6RMY and SSO 3376160-u1 (Applied Biosystems™, Carlsbad Calif.) were used. […]
as §1

[4] = system: LSEC; assay: High-throughput fluorescent 96-well phagocytosis assay (ELISA based fluorescent assay) with platelets and LSEC; details: compound at 5 mg/ml, 0.5 mg/ml or none, FIG. 9 panel B
Experimental: A high-throughput fluorescent 96-well phagocytosis assay was performed using human and baboon platelets and LSEC. The compounds of interest asialofeutin or feutin were added to the samples. Experiments were performed with reduced calcium or in the presence of the chelating agent, EDTA.

[5] = system: Domestic and GTKO/hDAF LSEC cultures; assay: Inhibition of platelet phagocytosis assay: fetuin / asialofetuin, CFSE-labeled human platelets; details: LSECs from domestic or GTKO/hDAF pigs; 0.5-20 μg/ml; FIG. 15 panel A
Experimental: Fetuin, a glycoprotein composed of sialic acid terminated galactose β1, −4 N-acetylglucosamine (Galβ) oligosaccharides, and asialofetuin, a derivative of fetuin lacking the terminal sialic acid saccharides and with exposed Galβ oligosaccharides were utilized to evaluate platelet binding. Domestic (n=2-5) and GTKO/hDAF (n=5) LSEC cultures were established. Cultures were incubated with 0.5, 2.5, 5, 10 or 20 μg/ml fetuin or asialofetuin. After incubations, CFSE-labeled human platelets were added to the cultures. Platelet binding and phagocytosis was measured using a spectromax plate reader. The percent of platelet binding was calculated.

| Substance | platelet phagocytosis compared to siGenome transfected LSECs ([1]; GTKO/hDAF LSECs) | platelet phagocytosis compared to siGenome transfected LSECs ([1]; domestic LSECs) | ASGR1 protein levels relative to non-specifically treated cells (siGenome) ([2]; GTKO/hDAF LSECs) | ASGR1 protein levels relative to non-specifically treated cells (siGenome) ([2]; domestic LSECs) | ASGR1 mRNA levels relative to non-specifically treated cells (siGenome) ([3]; GTKO/hDAF LSECs) | ASGR1 mRNA levels relative to non-specifically treated cells (siGenome) ([3]; domestic LSECs) | inhibition of binding of baboon platelets (RFI) [4] | inhibition of binding of human platelets (RFI) [4] | percent of human platelet binding by LSECs [5] |
| --- | --- | --- | --- | --- | --- | --- | --- | --- | --- |
| ASGR1 siRNA: double-stranded siRNA to ASGR1 mRNA; sense strand SEQ ID NO:11, antisense strand SEQ ID NO:12 (sense CAGCAUGCAGGGAGGAAAUUU; antisense AUUUCCUCCCUGCAUGCUGUU; chemistry not given here) | 69% | 79% | 87% | 80% | 20% | 56% | – | – | – |
| Fetuin | – | – | – | – | – | – | not feutin inhibits binding | not feutin inhibits binding | – |
| asialofetuin | – | – | – | – | – | – | inhibits binding | inhibits binding | significantly reduced |
